Measurements taken from patent US8426589B2, “Process for production of quinazoline derivative” (Shionogi & Co., Ltd., priority 2008, dated 2013).

Test: Stability test of the crystalline form (sealed glass vial, HPLC)
Format: physicochemical
Description: The crystalline form of the compound (IV) monohydrate was sealed in a glass vial and allowed it to stand for 20 days to determine the quality change before and after the test. Under heating at 50° C. (for 21 hr) or 80° C. (for 9 hr) were also conducted.
The quality degradation was not seen for the crystalline form of the compound (IV) monohydrate after 20 days and neither at 50° C. nor 80° C.
HPLC condition: Column Unison UK-C18 3 μm;
Mobile phase: 0.1% trifuluoroacetic acid aq. in acetnitrile;
Column temperature: 30° C.
Detector: UV spectrophotometer (254 nm)

For `CC#CC(=O)c1ccc2ncnc(Nc3ccc(OCc4cccc(F)c4)c(Cl)c3)c2c1` [compound (IV) monohydrate, 4-(3-chloro-4-(3-fluorobenzyloxy)phenylamino)-6-(1-oxo-2-butyn-1-yl)quinazoline], the “remaining ratio (HPLC, peak at Retention Time 10.2 min)” value (“remaining ratio” for short) (ca. 50° C., 15 h) was 99.2, the “remaining ratio” value (ca. 50° C., 21 h) was 99.1 and the “remaining ratio” value (ca. 50° C., Control (before the test)) was 99.4. For the same compound, the “remaining ratio” value (ca. 80° C., 3 h) was 99.1, the “remaining ratio” value (ca. 80° C., 9 h) was 99.1 and the “remaining ratio” value (ca. 80° C., Control (before the test)) was 99.1. The quality degradation (heating at 50° C. (for 21 hr)) was “not seen”, the quality degradation (heating at 80° C. (for 9 hr)) was “not seen” and the “remaining ratio” value (rt (ca. 22° C.), sealed in a glass vial, 20 days) was 99.3. The “remaining ratio” value (rt (ca. 22° C.), sealed in a glass vial, Control (before the test)) was 99.1 and the quality degradation (sealed in a glass vial, after 20 days) was “not seen”.
